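Dose response: 5 concentrations. Exposure: 48 h. Format: 96-well plates. Endpoint: linear interpolation; highest concentration if not reached. The concentration for 50% growth inhibition is given as GI50.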 Active and inactive are the calls of the source. Cut-off read from the data, not from the text of the source: active = GI50 up to about 1.1 µM and inactive = higher.
What was measured:
Assay in all cases: NCI tumour cell line growth inhibition, 48 h
786-0 = tested on: 786-0
ACHN = tested on: ACHN
BT-549 = tested on: BT-549
DU-145 = tested on: DU-145
M14 = tested on: M14
MCF7 = tested on: MCF7
MDA-MB-231 = tested on: MDA-MB-231
MDA-N = tested on: MDA-N
NCI-H522 = tested on: NCI-H522
NCI/ADR-RES = tested on: NCI/ADR-RES
OVCAR-8 = tested on: OVCAR-8
PC-3 = tested on: PC-3
SR = tested on: SR
UACC-62 = tested on: UACC-62
UO-31 = tested on: UO-31
HCC 2998 = tested on: HCC 2998
DLD-1 = tested on: DLD-1
KM-20L2 = tested on: KM-20L2
LXFL 529 = tested on: LXFL 529

SMILES	GI50 (786-0)	GI50 (ACHN)	GI50 (BT-549)	GI50 (DU-145)	GI50 (M14)	GI50 (MCF7)	GI50 (MDA-MB-231)	GI50 (MDA-N)	GI50 (NCI-H522)	GI50 (NCI/ADR-RES)	GI50 (OVCAR-8)	GI50 (PC-3)	GI50 (SR)	GI50 (UACC-62)	GI50 (UO-31)	GI50 (HCC 2998)	GI50 (DLD-1)	GI50 (KM-20L2)	GI50 (LXFL 529)
O=C(O)c1cc(-c2ccc3cc4c(cc3c2)OCO4)nc2ccccc12	30.7 µM (inactive)	37.8 µM (inactive)	22.8 µM (inactive)	63.4 µM (inactive)	28 µM (inactive)	32.2 µM (inactive)	31.4 µM (inactive)	36 µM (inactive)	35.3 µM (inactive)	40.7 µM (inactive)	37.1 µM (inactive)	14.1 µM (inactive)	7.45 µM (inactive)	23.5 µM (inactive)	11.5 µM (inactive)	–	–	–	–
CCN1CCC(O)(/C=C/c2ccc(C)cc2)C(C(=O)/C=C/c2ccc(C)cc2)C1 (stereo unspecified)	2.08 µM (inactive)	3.7 µM (inactive)	3.5 µM (inactive)	11.8 µM (inactive)	2.83 µM (inactive)	2.36 µM (inactive)	2.07 µM (inactive)	3.18 µM (inactive)	1.7 µM (inactive)	2.61 µM (inactive)	2.81 µM (inactive)	4.49 µM (inactive)	2.37 µM (inactive)	3.08 µM (inactive)	3.85 µM (inactive)	2.29 µM (inactive)	–	–	–
CCCS(=O)(=O)O	–	> 100 µM (inactive)	> 100 µM (inactive)	> 100 µM (inactive)	> 100 µM (inactive)	> 100 µM (inactive)	> 100 µM (inactive)	–	> 100 µM (inactive)	> 100 µM (inactive)	> 100 µM (inactive)	> 100 µM (inactive)	> 100 µM (inactive)	> 100 µM (inactive)	> 100 µM (inactive)	–	–	–	–
CCN(CC)C(=O)c1cc(OC(C)C)ccc1-c1c(C)cc(OC(C)C)c(OC)c1OC	–	57.8 µM (inactive)	–	–	79.4 µM (inactive)	–	–	–	40 µM (inactive)	–	58.5 µM (inactive)	–	33.6 µM (inactive)	51.8 µM (inactive)	86.3 µM (inactive)	46.3 µM (inactive)	40.3 µM (inactive)	74 µM (inactive)	–
Cc1ccc(NC(=S)NNC(=O)c2cc(-c3ccccc3)nc3ccccc23)cc1C	16.3 µM (inactive)	25.2 µM (inactive)	18.7 µM (inactive)	22.4 µM (inactive)	15.5 µM (inactive)	12.4 µM (inactive)	20.3 µM (inactive)	17.2 µM (inactive)	22.5 µM (inactive)	23 µM (inactive)	20.8 µM (inactive)	18.7 µM (inactive)	14.6 µM (inactive)	16.9 µM (inactive)	17.9 µM (inactive)	18.8 µM (inactive)	–	–	–
O=C(NC1C/C(=N/O)c2c(Br)sc(Br)c21)C(F)(F)F (stereo unspecified)	18.2 µM (inactive)	34 µM (inactive)	32.1 µM (inactive)	27.5 µM (inactive)	36.2 µM (inactive)	37.6 µM (inactive)	13.1 µM (inactive)	32.3 µM (inactive)	26.1 µM (inactive)	19.3 µM (inactive)	20.7 µM (inactive)	13.9 µM (inactive)	–	16.9 µM (inactive)	13.7 µM (inactive)	22.6 µM (inactive)	–	–	–
COc1ccc(C(CC(=O)c2ccc(O)cc2)C(C(=O)c2ccc(O)cc2)C(c2ccc(OC)cc2)C2C(=O)NC(=S)NC2=O)cc1 (stereo unspecified)	20.6 µM (inactive)	19.7 µM (inactive)	18.5 µM (inactive)	14.9 µM (inactive)	20.8 µM (inactive)	14.5 µM (inactive)	20.7 µM (inactive)	18.8 µM (inactive)	14.9 µM (inactive)	17.9 µM (inactive)	24.8 µM (inactive)	21.8 µM (inactive)	38 µM (inactive)	17.7 µM (inactive)	17.5 µM (inactive)	–	–	–	–
COC1OC(CS(=O)(=O)O)C(O)C(O)C1O (stereo unspecified)	–	–	> 100 µM (inactive)	> 100 µM (inactive)	> 100 µM (inactive)	> 100 µM (inactive)	–	> 100 µM (inactive)	–	> 100 µM (inactive)	> 100 µM (inactive)	> 100 µM (inactive)	> 100 µM (inactive)	> 100 µM (inactive)	> 100 µM (inactive)	> 100 µM (inactive)	–	–	–
C/C(=C1\N=C(c2ccccc2)OC1=O)c1ccccc1	–	> 100 µM (inactive)	0.61 µM (active)	> 100 µM (inactive)	> 100 µM (inactive)	> 100 µM (inactive)	–	–	> 100 µM (inactive)	–	70.8 µM (inactive)	> 100 µM (inactive)	> 100 µM (inactive)	> 100 µM (inactive)	> 100 µM (inactive)	> 100 µM (inactive)	–	–	–
CC(C)OP(=O)(OC(C)C)c1nn(-c2ccc([N+](=O)[O-])cc2)c(=N)s1	–	80.5 µM (inactive)	–	–	> 100 µM (inactive)	–	–	–	47.2 µM (inactive)	–	> 100 µM (inactive)	–	–	> 100 µM (inactive)	60.4 µM (inactive)	65.5 µM (inactive)	> 100 µM (inactive)	> 100 µM (inactive)	–
O=C(N/N=C/C=C/c1ccccc1)[C@H](O)[C@@H](O)C(=O)N/N=C/C=C/c1ccccc1	–	> 100 µM (inactive)	–	–	–	–	–	–	> 100 µM (inactive)	–	> 100 µM (inactive)	–	> 100 µM (inactive)	> 100 µM (inactive)	> 100 µM (inactive)	> 100 µM (inactive)	> 100 µM (inactive)	> 100 µM (inactive)	> 100 µM (inactive)
CO[C@H]1C=C[C@@]23c4cc5c(cc4CO[C@]2(O)CN(C)[C@H]3C1)OCO5	> 100 µM (inactive)	> 100 µM (inactive)	> 100 µM (inactive)	> 100 µM (inactive)	> 100 µM (inactive)	> 100 µM (inactive)	> 100 µM (inactive)	> 100 µM (inactive)	> 100 µM (inactive)	> 100 µM (inactive)	> 100 µM (inactive)	> 100 µM (inactive)	–	> 100 µM (inactive)	> 100 µM (inactive)	> 100 µM (inactive)	–	–	–
CC1C(=O)N(c2ccccc2)NC12CCCc1ccccc12 (stereo unspecified)	–	> 100 µM (inactive)	> 100 µM (inactive)	> 100 µM (inactive)	> 100 µM (inactive)	> 100 µM (inactive)	> 100 µM (inactive)	> 100 µM (inactive)	> 100 µM (inactive)	> 100 µM (inactive)	> 100 µM (inactive)	> 100 µM (inactive)	> 100 µM (inactive)	> 100 µM (inactive)	> 100 µM (inactive)	> 100 µM (inactive)	–	–	–
C=CC(=O)NC(O)(C(=O)OCC)C(F)(F)F (stereo unspecified)	–	> 100 µM (inactive)	> 100 µM (inactive)	> 100 µM (inactive)	> 100 µM (inactive)	> 100 µM (inactive)	> 100 µM (inactive)	> 100 µM (inactive)	> 100 µM (inactive)	> 100 µM (inactive)	> 100 µM (inactive)	> 100 µM (inactive)	64.4 µM (inactive)	> 100 µM (inactive)	> 100 µM (inactive)	> 100 µM (inactive)	–	–	–
CN(C)c1ccc(/C=C2/SC(=S)NC2=O)cc1	> 100 µM (inactive)	> 100 µM (inactive)	> 100 µM (inactive)	> 100 µM (inactive)	> 100 µM (inactive)	> 100 µM (inactive)	90.8 µM (inactive)	> 100 µM (inactive)	> 100 µM (inactive)	> 100 µM (inactive)	> 100 µM (inactive)	> 100 µM (inactive)	> 100 µM (inactive)	> 100 µM (inactive)	> 100 µM (inactive)	> 100 µM (inactive)	–	–	–
Cc1[nH]c2ncn(/N=C/c3ccccc3O)c(=N)c2c1Cc1ccccc1	81.8 µM (inactive)	54.2 µM (inactive)	37.2 µM (inactive)	> 100 µM (inactive)	58.6 µM (inactive)	33 µM (inactive)	24.9 µM (inactive)	26 µM (inactive)	–	40.6 µM (inactive)	> 100 µM (inactive)	17.6 µM (inactive)	–	37.2 µM (inactive)	43.1 µM (inactive)	28.9 µM (inactive)	–	–	–
CC(SC(=S)N1CCOCC1)C(=O)Nc1nnc(-c2ccc(Cl)cc2)o1 (stereo unspecified)	27.9 µM (inactive)	51.2 µM (inactive)	> 100 µM (inactive)	79.6 µM (inactive)	36 µM (inactive)	32.3 µM (inactive)	51.5 µM (inactive)	–	–	23.6 µM (inactive)	42.2 µM (inactive)	38.5 µM (inactive)	8.07 µM (inactive)	50.6 µM (inactive)	22.4 µM (inactive)	> 100 µM (inactive)	–	–	–
Cc1cc2c(ccc[n+]2[O-])[n+]([O-])c1	–	> 100 µM (inactive)	–	–	> 100 µM (inactive)	–	–	–	> 100 µM (inactive)	–	> 100 µM (inactive)	–	> 100 µM (inactive)	> 100 µM (inactive)	> 100 µM (inactive)	> 100 µM (inactive)	> 100 µM (inactive)	> 100 µM (inactive)	> 100 µM (inactive)
COc1cc([C@@H]2c3cc4c(cc3[C@@H](c3c(O)cc(O)c5c3O[C@H](c3ccc(O)c(O)c3)[C@@H](O)C5)[C@H]3COC(=O)[C@H]23)OCO4)cc(OC)c1O	> 100 µM (inactive)	> 100 µM (inactive)	> 100 µM (inactive)	> 100 µM (inactive)	> 100 µM (inactive)	> 100 µM (inactive)	> 100 µM (inactive)	34.7 µM (inactive)	43.6 µM (inactive)	> 100 µM (inactive)	> 100 µM (inactive)	> 100 µM (inactive)	–	> 100 µM (inactive)	–	> 100 µM (inactive)	–	–	–
Clc1ccc(-c2nnc(-c3nsc4ccccc34)o2)cc1	–	25.1 µM (inactive)	–	–	47.2 µM (inactive)	–	–	–	–	–	25.1 µM (inactive)	–	> 10 µM (inactive)	54 µM (inactive)	18.8 µM (inactive)	24.9 µM (inactive)	–	46.2 µM (inactive)	71 µM (inactive)

— ChEMBL document CHEMBL1201862, “PubChem BioAssay data set” (2004)
